US12472197B2 (priority 2020, dated 2025)
pEC50: −log10 of the molar value. Read-outs that look alike come from different tables or passages of the source.

How the values were obtained:
SARS-CoV (Urbani strain) = assay type: cell-based; settings: Vero-76 cells
NOAEL exposure in NHP = assay type: in vivo; settings: 30 mg/kg dose
[1] = test system: SARS-CoV-2 (WA1/2020 strain); experiment: Virus yield reduction (VYR) assay, SARS-CoV-2 in Vero76 cells; assay type: cell-based; settings: for EC90: Vero76 cells
[2] = human, in vivo
[3] = Phase 1 single ascending dose study, intravenous administration in healthy human subjects; assay type: in vivo; settings: for AUC0-inf / AUC24 / CL / Cmax / Vz / t1/2 / AUCt: geometric mean, preliminary; for AUCt: t 120 h to 480 h
Protocol: The agent used in this Example was compound A (the compound of formula I, where A is NH2 and B is H as the HCL salt). A phase 1 double-blind, placebo-controlled, single ascending dose study was conducted to evaluate the safety, tolerability, and pharmacokinetics of Compound A administered by intravenous (IV) administration in healthy human subjects. Four cohorts were administered the study drug at the following doses: 5 mg/kg, 10 mg/kg, 15 mg/kg, and 20 mg/kg. Eight subjects received a single IV dose per cohort (6 subjects received Compound A; 2 subjects received matching placebo). Subject dosing was staggered as a safety precaution.
The plasma PK concentration-time profile of Compound A at all doses was characterized by an initial rapid distribution and clearance phase, and a slow terminal clearance phase. […] The inter-subject variability in exposure (Cmax and AUC) was low, as reflected in the geometric mean coefficients of variance (CVs) on these parameters. No subjects met any stopping criteria for any cohort.

SARS-CoV-2 = experiment: Randomized placebo-controlled dose-ranging study, IV infusion in hospitalized adults with COVID-19 (Part 1)
MERS-CoV (Jordan strain) = assay type: cell-based; settings: Vero-76 cells
[4] = human, in vivo; remark: listed apart in the source
[5] = test system: SARS-CoV-2 (WA1/2020 isolate); experiment: SARS-CoV-2 hamster model of infection; settings: for lung tissue histopathology (total histology score) vs vehicle control: Days +3 and +7; for lung viral burden lower than vehicle control: 100 mg/kg BID i.p., Day 3 post-infection
[6] = human, in vivo; remark: listed apart in the source
[7] = EC50 adjusted with CLE, read-out: Adjusted EC50
[8] = NR uptake, MOI 0.001, 3 days, read-out: EC50

Question: With `Nc1ncnc2c([C@@H]3N[C@H](CO)[C@@H](O)[C@H]3O)c[nH]c12` [Compound A] as the compound, how does the CC50 (Vero76 cells) read?
Answer: > 296 µM

Question: And the pEC50 (SARS-CoV (Urbani strain); [7])?
Answer: 5.34

Question: What about the pEC50 (SARS-CoV (Urbani strain); [8]) of the same compound?
Answer: 4.24

Question: What about the NOAEL exposure (NOAEL exposure in NHP) of the same compound?
Answer: approximately 52,500 ng*h/mL

Question: And the EC90 ([1]; EC90 adjusted with CLE, read-out: Adjusted EC90)?
Answer: 0.87 µM

Question: And the SI ([1]; SI=CC50/EC90, Vero76 cells)?
Answer: >27

Question: And the EC90 ([1]; VYR at day 3, MOI 0.002, compound added 24 hours prior to infection, read-out: EC90)?
Answer: 10.9 µM

Question: What about the safety and tolerability [2] of the same compound?
Answer: generally safe and well tolerated

Question: What about the AUC0-inf ([3]; single IV dose 5 mg/kg) of the same compound?
Answer: 21200 ng·h/mL

Question: And the AUC24 ([3]; single IV dose 5 mg/kg)?
Answer: 10950 ng·h/mL

Question: And the CL ([3]; single IV dose 5 mg/kg)?
Answer: 17.1 L/h

Question: And the Cmax ([3]; single IV dose 5 mg/kg)?
Answer: 5540 ng/mL

Question: What about the Vz ([3]; single IV dose 5 mg/kg) of the same compound?
Answer: 2725 L

Question: And the t1/2 ([3]; single IV dose 5 mg/kg)?
Answer: 111 h

Question: What about the AUCt ([3]; single IV dose 5 mg/kg) of the same compound?
Answer: 17100 ng·h/mL

Question: And the AUC0-inf ([3]; single IV dose 10 mg/kg)?
Answer: 37100 ng·h/mL

Question: What about the AUC24 ([3]; single IV dose 10 mg/kg) of the same compound?
Answer: 21070 ng·h/mL

Question: What about the CL ([3]; single IV dose 10 mg/kg) of the same compound?
Answer: 20.7 L/h

Question: And the Cmax ([3]; single IV dose 10 mg/kg)?
Answer: 10300 ng/mL

Question: What about the Vz ([3]; single IV dose 10 mg/kg) of the same compound?
Answer: 3049 L

Question: What about the t1/2 ([3]; single IV dose 10 mg/kg) of the same compound?
Answer: 114.5 h

Question: What about the AUCt ([3]; single IV dose 10 mg/kg) of the same compound?
Answer: 32400 ng·h/mL

Question: What about the AUC0-inf ([3]; single IV dose 15 mg/kg) of the same compound?
Answer: 65900 ng·h/mL

Question: What about the AUC24 ([3]; single IV dose 15 mg/kg) of the same compound?
Answer: 34370 ng·h/mL

Question: And the CL ([3]; single IV dose 15 mg/kg)?
Answer: 16.7 L/h

Question: What about the Cmax ([3]; single IV dose 15 mg/kg) of the same compound?
Answer: 17700 ng/mL

Question: What about the Vz ([3]; single IV dose 15 mg/kg) of the same compound?
Answer: 4138 L

Question: And the t1/2 ([3]; single IV dose 15 mg/kg)?
Answer: 182.5 h

Question: What about the AUCt ([3]; single IV dose 15 mg/kg) of the same compound?
Answer: 59900 ng·h/mL

Question: What about the AUC0-inf ([3]; single IV dose 20 mg/kg) of the same compound?
Answer: 81200 ng·h/mL

Question: What about the AUC24 ([3]; single IV dose 20 mg/kg) of the same compound?
Answer: 44770 ng·h/mL

Question: And the CL ([3]; single IV dose 20 mg/kg)?
Answer: 17.9 L/h

Question: What about the Cmax ([3]; single IV dose 20 mg/kg) of the same compound?
Answer: 20500 ng/mL

Question: And the Vz ([3]; single IV dose 20 mg/kg)?
Answer: 4010 L

Question: What about the t1/2 ([3]; single IV dose 20 mg/kg) of the same compound?
Answer: 133.5 h

Question: What about the AUCt ([3]; single IV dose 20 mg/kg) of the same compound?
Answer: 73400 ng·h/mL

Question: And the safety and tolerability ([3]; single IV dose 5-20 mg/kg, healthy subjects)?
Answer: generally safe and well tolerated

Question: What about the “dose proportionality of Cmax, AUCt and AUCinf” value ([3]; single IV doses 5-20 mg/kg) of the same compound?
Answer: increased in dose-proportional manner

Question: What about the safety and tolerability (SARS-CoV-2; Cohorts 1-3, IV loading/maintenance regimens for 7 days, hospitalized COVID-19 patients) of the same compound?
Answer: safe and generally well tolerated

Question: And the “clinical efficacy compared to placebo” value (SARS-CoV-2; Cohorts 1-3, Part 1 not sized for efficacy)?
Answer: no clinical efficacy benefit

Question: What about the “decline in viral RNA levels in the respiratory tract” value (SARS-CoV-2; Cohorts 1-3, apparent dose-dependent manner) of the same compound?
Answer: more rapid decline in viral RNA levels in the respiratory tract

Question: What about the “time to a negative viral RNA result in LRT samples compared to placebo” value (SARS-CoV-2; Cohorts 1-3, shortest in Cohorts 2 and 3) of the same compound?
Answer: shorter time to a negative viral RNA result

Question: What about the pEC50 (MERS-CoV (Jordan strain); [7]) of the same compound?
Answer: 5.67

Question: And the pEC50 (MERS-CoV (Jordan strain); [8])?
Answer: 4.57

Question: What about the “dose proportionality of exposure” value [4] of the same compound?
Answer: dose-proportional and linear with increasing dose

Question: And the safety and tolerability [4]?
Answer: generally safe and well tolerated

Question: What about the “time after administration at which plasma concentrations were maximal” value [4] of the same compound?
Answer: 1 to 2 h

Question: And the “increase in exposure (AUC) with repeat dosing” value ([4]; im)?
Answer: approximately 1.5 fold

Question: And the t1/2 ([4]; im, 2.5 mg/kg)?
Answer: 104 (15.9) h

Question: What about the t1/2 ([4]; im, 5 mg/kg) of the same compound?
Answer: 85.7 (17.3) h

Question: And the AUC0-24 ([4]; im, 10 mg/kg)?
Answer: 20300 ng·h/mL

Question: And the AUCtau ([4]; im, 10 mg/kg)?
Answer: 34500 ng·h/mL

Question: And the Cmax ([4]; im, 10 mg/kg)?
Answer: 7980 ng/mL

Question: And the Tmax ([4]; im, 10 mg/kg)?
Answer: 0.375 h

Question: And the t1/2 ([4]; im, 10 mg/kg)?
Answer: 113 (26.4) h

Question: And the “lung tissue histopathology (total histology score) vs vehicle control” value ([5]; Group 1 (first dose −24 hours))?
Answer: reduced/no tissue histopathology as compared with vehicle control

Question: And the “animals that achieved PFU<10 (lower limit of quantification) in OP swabs” value ([5]; Group 1, 100 mg/kg BID i.p., first dose −24 hr)?
Answer: 62.5%

Question: And the weight loss ([5]; Group 1, 100 mg/kg BID i.p., first dose −24 hr relative to infection)?
Answer: < 5%

Question: What about the “lung tissue histopathology (total histology score) vs vehicle control” value ([5]; Group 2 (first dose +1.5 hours)) of the same compound?
Answer: reductions relative to vehicle control

Question: What about the “lung viral burden lower than vehicle control” value ([5]; Group 3 (first dose +24 hours)) of the same compound?
Answer: ~0.66 log

Question: And the “clinical scores, adverse impact of dosing” value ([5]; Groups 1-3, 100 mg/kg BID i.p.)?
Answer: no adverse impact

Question: What about the “lung viral burden lower than vehicle control” value ([5]; Groups 1 and 2 (first dose −24 and +1.5 hours)) of the same compound?
Answer: 1.4-1.6 log

Question: What about the safety and tolerability [6] of the same compound?
Answer: generally safe and well tolerated
